System: P. methanolica cells (strain CBS6515, UV-mutagenized)
Experiment: Nystatin enrichment for auxotrophic mutants; titering of nystatin-treated versus control cells for colony forming units
Type: cell-based, Pichia methanolica
Conditions: 1 mg nystatin added to the remainder of a 500 ml culture in minimal broth with 5 g/L ammonium sulfate, incubated 1 hour with shaking
Method: Large-scale mutagenesis was then carried out using a 2-second UV exposure to provide about 20% killing. Cells were plated at approximately 10^4 cells/plate onto eight YEPD plates that were supplemented with 100 mg/L each of uracil, adenine, and leucine, which were added to supplement the growth of potential auxotrophs having the cognate deficiencies. Following UV exposure the plates were wrapped in foil and incubated overnight at 30° C. The following day the colonies on the plates (^~ 10^5 total) were resuspended in water and washed once with water. An amount of cell suspension sufficient to give an OD600 of 0.1-0.2 was used to inoculate 500 ml of minimal broth made with yeast nitrogen base without amino acids or ammonia, supplemented with 1% glucose and 400 μg/L biotin. The culture was placed in a 2.8 L baffled Bell flask and shaken vigorously overnight at 30° C. The following day the cells had reached an OD600 of ^~ 1.0-2.0. The cells were pelleted and resuspended in 500 ml of minimal broth supplemented with 5 g/L ammonium sulfate. The cell suspension was placed in a 2.8 L baffled Bell flask and shaken vigorously at 30° C. for 6 hours. 50 ml of the culture was set aside in a 250-ml flask as a control, and to the remainder of the culture was added 1 mg nystatin (Sigma Chemical Co., St. Louis, Mo.) to select for auxotrophic mutants (Snow, Nature 211:206-207, 1966). […]

## C[C@@H]1[C@H](O)[C@@H](C)/C=C/C=C/CC/C=C/C=C/C=C/C=C/C(O[C@H]2O[C@H](C)[C@@H](O)[C@H](N)[C@@H]2O)CC2O[C@](O)(CC(O)C(O)CCC(O)CC(O)CC(O)CC(=O)O[C@H]1C)CC(O)C2C(=O)O (stereo partly shown) [nystatin]
  decrease in the number of viable cells (colony forming units), factor versus control cells: 10^4

From patent US6183953A, “Chromosomal mutagenesis in Pichia methanolica” (ZymoGenetics, Inc., priority 1997, dated 2001)
